The text below walks through data of ChEMBL document CHEMBL4602678, “Identification of Holrhizins E-Q Reveals the Diversity of Nonribosomal Lipopeptides in Paraburkholderia rhizoxinica” (J Nat Prod, 2020).

pIC50: −log10 of the molar value. Where a SMILES comes first, the peptide text is derived from it. The star is where a group is joined. Hexanoyl = CCCCCC(=O)*

One may read the MIC as the smallest concentration in the dilution series that meets the test's criterion for growth inhibition. Higher therefore signals weaker potency. As usually defined, the pIC50 is the negative decadic logarithm of the IC50, by convention in mol/L. Read a low pIC50 as a high IC50.

Test [1] deals with Staphylococcus aureus. As to the kind of experiment: Antimicrobial activity against Staphylococcus aureus ATCC 29213 incubated for 24 hrs by Kirby-Bauer disk diffusion method. The class given is functional. As to conditions: ATCC 29213, 24 h.
Test [2] relates to MDA-MB-231. The experiment in a line: Cytotoxicity against human MDA-MB-231 cells incubated for 2 days by MTT assay. The class given is functional, cell-based. As to conditions: MDA-MB-231, 48 h.
The subject of test [3] is A549. The experiment in a line: Cytotoxicity against human A549 cells incubated for 2 days by MTT assay. As to conditions: A549, 48 h. The class given is functional, cell-based. On the technique in general: Tetrazolium assays rely on reduction of a dye to a coloured formazan, in cell work by metabolically active cells.
In test [4] the test system is Rhizoctonia solani. As to the kind of experiment: Antimicrobial activity against Rhizoctonia solani incubated for 24 hrs by Kirby-Bauer disk diffusion method. The class given is functional. Background: In agar diffusion tests the substance spreads into inoculated agar from a disc or well.
Test [5] relates to K562. As to the kind of experiment: Cytotoxicity against human K562 cells incubated for 2 days by MTT assay. The class given is functional, cell-based. As to conditions: K562, 48 h.
The subject of test [6] is Bacillus subtilis. The experiment in a line: Antimicrobial activity against Bacillus subtilis ATCC 6633 incubated for 24 hrs by Kirby-Bauer disk diffusion method. The class given is functional. As to conditions: ATCC 6633, 24 h.
The subject of test [7] is MCF7. The experiment in a line: Cytotoxicity against human MCF7 cells incubated for 2 days by MTT assay. The class given is functional, cell-based. As to conditions: MCF7, 48 h.
In test [8] the test system is Pseudomonas aeruginosa. The experiment in a line: Antimicrobial activity against Pseudomonas aeruginosa […] ATCC 27853 incubated for 24 hrs by Kirby-Bauer disk diffusion method. The class given is functional.
For test [9], the system named is HepG2. As to the kind of experiment: Cytotoxicity against human HepG2 cells incubated for 2 days by MTT assay. As to conditions: HepG2, 48 h. The class given is functional, cell-based.
In test [10] the test system is Escherichia coli. As to the kind of experiment: Antimicrobial activity against Escherichia coli ATCC 35218 incubated for 24 hrs by Kirby-Bauer disk diffusion method. The class given is functional. As to conditions: ATCC 35218, 24 h.
For test [11], the system named is Candida albicans. As to the kind of experiment: Antimicrobial activity against Candida albicans incubated for 24 hrs by Kirby-Bauer disk diffusion method. The class given is functional.
The nature of test [12]: Cytotoxicity against human Kasumi cells incubated for 2 days by MTT assay. The class given is functional, cell-based. As to conditions: 48 h.
Test [13] has as its system HCT-116. The experiment in a line: Cytotoxicity against human HCT116 cells incubated for 2 days by MTT assay. As to conditions: HCT-116, 48 h. The class given is functional, cell-based.
Test [14] can be described thus: Cytotoxicity against human 2B cells incubated for 2 days by MTT assay. The class given is cell-based. As to conditions: 48 h.
Test [15] deals with SGC-7901. The experiment in a line: Cytotoxicity against human SGC7901 cells incubated for 2 days by MTT assay. The class given is functional, cell-based. As to conditions: SGC-7901, 48 h.
In test [16] the test system is Aspergillus fumigatus. The experiment in a line: Antimicrobial activity against Aspergillus fumigatus incubated for 24 hrs by Kirby-Bauer disk diffusion method. The class given is functional.

`CCCCCC(=O)N[C@H](C(=O)N[C@@H](Cc1ccccc1)C(=O)N[C@@H](CCC(=O)O)C(=O)N[C@H](C(=O)N[C@@H](C)C(=O)N[C@H](C(=O)O)[C@@H](C)CC)[C@@H](C)CC)C(C)C` (Hexanoyl-VFEIAI-OH): the MIC in test [1], in test [4], in [6], in test [8], in test [10] and in [11] was > 100 µM each time. In addition, in [16], the MIC was > 100 µM. Moreover, the pIC50 in test [2], in test [3], in test [5], in [7], in test [9] and in test [12] was < 4.40 each time. The pIC50 in [13], in [14] and in [15] was < 4.40 in each case.

In the case of `CCCCCC(=O)N[C@H](C(=O)N[C@@H](Cc1ccccc1)C(=O)N[C@@H](CCC(=O)O)C(=O)N[C@H](C(=O)N[C@@H](C)C(=O)N[C@@H](CC(C)C)C(=O)O)[C@@H](C)CC)C(C)C` (Hexanoyl-VFEIAL-OH), the MIC in test [1], in test [4], in [6], in test [8], in test [10] and in [11] was > 100 µM each time. Also, the MIC in test [16] was > 100 µM. For the same molecule, the pIC50 in test [2], in test [3], in test [5], in [7], in test [9] and in [12] was < 4.40 in each case. Besides, the pIC50 in test [13], in test [14] and in test [15] was < 4.40 throughout.

For the molecule `CCCCCC(=O)N[C@H](C(=O)N[C@@H](Cc1ccccc1)C(=O)N[C@@H](CCC(=O)O)C(=O)N[C@@H](CC(C)C)C(=O)N[C@@H](C)C(=O)N[C@H](C(=O)O)[C@@H](C)CC)C(C)C` (Hexanoyl-VFELAI-OH), the MIC in test [1], in test [4], in test [6], in test [8], in test [10] and in test [11] was > 100 µM in each case. For the same molecule, the MIC in test [16] was > 100 µM. Moreover, the pIC50 in [2], in test [3], in [5], in test [7], in test [9] and in test [12] was < 4.40 each time. The pIC50 in test [13], in test [14] and in [15] was < 4.40 each time.

Regarding `CCCCCC(=O)N[C@H](C(=O)N[C@@H](Cc1ccccc1)C(=O)N[C@@H](CCC(=O)O)C(=O)N[C@@H](CC(C)C)C(=O)N[C@@H](C)C(=O)N[C@@H](CC(C)C)C(=O)O)C(C)C` (Hexanoyl-VFELAL-OH), the MIC in test [1], in test [4], in test [6], in test [8], in test [10] and in test [11] was > 100 µM throughout. Further, the MIC in test [16] was > 100 µM. Further, the pIC50 in [2], in [3], in test [5], in [7], in [9] and in test [12] was < 4.40 each time. The pIC50 in [13], in [14] and in test [15] was < 4.40 each time.

Turning to `CCCCCC(=O)N[C@H](C(=O)N[C@@H](Cc1ccccc1)C(=O)O)C(C)C` (Hexanoyl-Val-Phe-OH), the MIC in test [1], in [4], in test [6], in test [8], in test [10] and in [11] was > 100 µM each time. In addition, the minimal inhibitory concentration (MIC) in [16] was > 100 µM. Also, the pIC50 in [2], in test [3], in test [5], in test [7], in test [9] and in [12] was < 4.40 throughout. In addition, the pIC50 in test [13], in test [14] and in test [15] was < 4.40 each time.
